# Results reported in PMC6778101 (Nature Communications, 2019).
# Entries after “also recorded” stand apart in the source; their conditions may differ. Ends that are not written are not given here. Peptide text beside a SMILES is read from it.
# Assays:
# A. baumannii ATCC 17978 = experiment: Laboratory evolution of resistance, MIC fold change of adapted lines; format: cell-based; settings: Acinetobacter baumannii ATCC 17978; parallel line 1 of 10
# Excerpt: (§1) The tested pathogens initially sensitive to the AMPs and the antibiotics included Escherichia coli (ATCC® 25922™) (abbreviated as E. coli ATCC 25922), Salmonella enterica subsp. enterica serovar Typhimurium LT2 (abbreviated as S. enterica LT2), Klebsiella pneumoniae subsp. pneumoniae (Schroeter) Trevisan (ATCC® 10031™) (abbreviated as K. pneumoniae ATCC 10031) and Acinetobacter baumannii Bouvet and Grimont (ATCC® 17978™) (abbreviated as A. baumannii ATCC 17978).
# (§2) The evolutionary protocol was designed to avoid population extinction and to ensure that populations with the highest level of resistance were propagated further. Starting with a subinhibitory drug concentration (Supplementary Data 8), resulting in ~50% growth inhibition, 10 parallel populations per drug were allowed to grow in Minimal Salts medium for 72 h and 300 r.p.m. E. coli K-12 BW25113 and E. coli mutD5 populations were incubated at 30 °C, while E. coli ATCC 25922, S. enterica LT2, K. pneumonia ATCC 10031, and A. baumannii ATCC 17978 were incubated at 37 °C. […] Prior to each transfer, cell growth was monitored by measuring the optical density at 600 nm (OD600 value, Biotek Synergy 2 microplate reader). Only populations with the highest drug concentration (and reaching OD600 > 0.2) were selected for further evolution. A chess-board layout was used on the plate to monitor potential cross-contamination events. […] E. coli mutD5 was adapted to TPII, also in 10 parallel evolving populations.
# (§3) MICs were determined using a standard serial broth dilution technique. Briefly, 11-step serial dilutions were prepared in 96-well microtiter plates with three replicates per strain and antimicrobial compound. Each experiment was repeated at least twice. […] Cell growth was monitored by measuring the optical density (OD600 value, Biotek Synergy 2 microplate reader was used for this purpose). […] Relative MIC was calculated as follows: MICrelative = MICevolved/MICcontrol.
# E. coli ATCC 25922 = experiment: as above; format: cell-based; settings: Escherichia coli ATCC 25922; parallel line 1 of 10
# Excerpt: as §1, §2, §3
# K. pneumoniae ATCC 10031 [1] = experiment: as above; format: cell-based; settings: Klebsiella pneumoniae ATCC 10031; parallel line 1 of 10
# Excerpt: as §1, §2, §3
# [2] = system: E. coli ATCC 25922, S. enterica LT2, K. pneumoniae ATCC 10031, A. baumannii ATCC 17978; experiment: Laboratory evolution in pathogenic bacteria, statements for all four pathogens together; format: cell-based; settings: all four pathogenic species
# Excerpt: as §1, §2, §3
# [3] = system: 38 AMP-adapted E. coli K-12 BW25113 lines; experiment: Cross-resistance of AMP-resistant lines (relative MIC); format: cell-based, Escherichia coli; settings: for Relative MIC (MICevolved / MICcontrol): >1 cross-resistance, <1 collateral sensitivity
# Excerpt: Next, we have explored whether laboratory evolved AMP resistance provide any cross-resistance to AMPs which appear to be less prone to resistance. […] We have measured the changes in susceptibilities of these strains to the AMPs (PLEU, PGLA, R8, IND, TPII, and CP1) towards which resistance evolution was limited, as well as to the human peptide LL37. LL37 is a cathelicidin-derived AMP present throughout the human body with critical defensive roles. Cross-resistance was defined as a minimum of twofold increase in resistance level.
# (§4) MICs were determined using a standard serial broth dilution technique. Briefly, 11-step serial dilutions were prepared in 96-well microtiter plates with three replicates per strain and antimicrobial compound. Each experiment was repeated at least twice. 5 × 10^5 cells/mL were inoculated into each well, and the plates were incubated at 30 °C in case of E. coli K-12 BW25113, and its antibiotic and AMP-adapted lines, or 37 °C in case of the other bacterial species. Plates were shaken at 300 r.p.m. during incubation for 24 and 18 h, respectively. Cell growth was monitored by measuring the optical density (OD600 value, Biotek Synergy 2 microplate reader was used for this purpose). […] Relative MIC was calculated as follows: MICrelative = MICevolved/MICcontrol.
# K. pneumoniae ATCC 10031 [4] = format: cell-based, Klebsiella pneumoniae; settings: Klebsiella pneumoniae ATCC 10031; broth dilution, 37 °C, 18 h
# Description: (§5) Unless otherwise indicated, we used E. coli K-12 BW25113 in all high-throughput experiments. To investigate the impact of mutation rate on evolution of AMP resistance, we initiated laboratory evolution with a mutator strain E. coli mutD5 that carries mutations in the dnaQ gene (L73W and A164V).
# as §4
# [5] = system: Salmonella enteritidis HNCMB 10092; format: cell-based; settings: broth dilution, 37 °C, 18 h
# Description: as §5, §4
compound,measurement,setting,value
"CC[C@H](C)[C@@H]1NC(=O)CNC(=O)[C@H](CCCNC(=N)N)NC(=O)[C@H](Cc2ccc(O)cc2)NC(=O)[C@@H]2CSSC[C@H](NC1=O)C(=O)N[C@@H](Cc1ccc(O)cc1)C(=O)N[C@@H](CCCNC(=N)N)C(=O)N[C@@H](CCCCN)C(=O)N[C@H](C(=O)N[C@@H](CCCNC(=N)N)C(N)=O)CSSC[C@H](NC(=O)[C@H](Cc1c[nH]c3ccccc13)NC(=O)[C@@H](N)CCCNC(=N)N)C(=O)N[C@@H](Cc1ccccc1)C(=O)N[C@@H](CCCNC(=N)N)C(=O)N[C@@H](C(C)C)C(=O)N2 [TPII, tachyplesin II] (HELM PEPTIDE1{R.W.C.F.R.V.C.Y.R.G.I.C.Y.R.K.C.R.[am]}$PEPTIDE1,PEPTIDE1,3:R3-16:R3|PEPTIDE1,PEPTIDE1,7:R3-12:R3$$$V2.0; N-terminus and C-terminus assumed; bridges inferred)",MIC fold change following 20 transfers,A. baumannii ATCC 17978,4.3 fold
same,MIC fold change following 20 transfers,E. coli ATCC 25922,4.8 fold
same,MIC fold change following 20 transfers,K. pneumoniae ATCC 10031 [1],5.6 fold
same,resistance after laboratory evolution in pathogens (in words),[2],very low levels
same,Fold change in minimum inhibitory concentration (MIC),[3]; AMP-adapted line BAC5_3,1
same,Relative MIC (MICevolved / MICcontrol),[3]; AMP-adapted line BAC5_3,1
same,Fold change in minimum inhibitory concentration (MIC),[3]; AMP-adapted line BAC5_5,1
same,Relative MIC (MICevolved / MICcontrol),[3]; AMP-adapted line BAC5_5,1
same,Fold change in minimum inhibitory concentration (MIC),[3]; AMP-adapted line BAC5_7,1.1
same,Relative MIC (MICevolved / MICcontrol),[3]; AMP-adapted line BAC5_7,1.1
same,Fold change in minimum inhibitory concentration (MIC),[3]; AMP-adapted line BAC5_10,1.1
same,Relative MIC (MICevolved / MICcontrol),[3]; AMP-adapted line BAC5_10,1.1
same,Fold change in minimum inhibitory concentration (MIC),[3]; AMP-adapted line CAP18_2,1.1
same,Relative MIC (MICevolved / MICcontrol),[3]; AMP-adapted line CAP18_2,1.1
same,Fold change in minimum inhibitory concentration (MIC),[3]; AMP-adapted line CAP18_5,1
same,Relative MIC (MICevolved / MICcontrol),[3]; AMP-adapted line CAP18_5,1
same,Fold change in minimum inhibitory concentration (MIC),[3]; AMP-adapted line CAP18_6,1
same,Relative MIC (MICevolved / MICcontrol),[3]; AMP-adapted line CAP18_6,1
same,Fold change in minimum inhibitory concentration (MIC),[3]; AMP-adapted line CAP18_8,1.1
same,Relative MIC (MICevolved / MICcontrol),[3]; AMP-adapted line CAP18_8,1.1
same,Fold change in minimum inhibitory concentration (MIC),[3]; AMP-adapted line CAP18_10,1
same,Relative MIC (MICevolved / MICcontrol),[3]; AMP-adapted line CAP18_10,1
same,Fold change in minimum inhibitory concentration (MIC),[3]; AMP-adapted line HBD3_3,1.2
same,Relative MIC (MICevolved / MICcontrol),[3]; AMP-adapted line HBD3_3,1.2
same,Fold change in minimum inhibitory concentration (MIC),[3]; AMP-adapted line HBD3_6,1.2
same,Relative MIC (MICevolved / MICcontrol),[3]; AMP-adapted line HBD3_6,1.2
same,Fold change in minimum inhibitory concentration (MIC),[3]; AMP-adapted line HBD3_8,1.2
same,Relative MIC (MICevolved / MICcontrol),[3]; AMP-adapted line HBD3_8,1.2
same,Fold change in minimum inhibitory concentration (MIC),[3]; AMP-adapted line HBD3_10,1.2
same,Relative MIC (MICevolved / MICcontrol),[3]; AMP-adapted line HBD3_10,1.2
same,Fold change in minimum inhibitory concentration (MIC),[3]; AMP-adapted line LL37_1,1.1
same,Relative MIC (MICevolved / MICcontrol),[3]; AMP-adapted line LL37_1,1.1
same,Fold change in minimum inhibitory concentration (MIC),[3]; AMP-adapted line LL37_3,1.1
same,Relative MIC (MICevolved / MICcontrol),[3]; AMP-adapted line LL37_3,1.1
same,Fold change in minimum inhibitory concentration (MIC),[3]; AMP-adapted line LL37_6,1
same,Relative MIC (MICevolved / MICcontrol),[3]; AMP-adapted line LL37_6,1
same,Fold change in minimum inhibitory concentration (MIC),[3]; AMP-adapted line LL37_7,1
same,Relative MIC (MICevolved / MICcontrol),[3]; AMP-adapted line LL37_7,1
same,Fold change in minimum inhibitory concentration (MIC),[3]; AMP-adapted line LL37_10,1
same,Relative MIC (MICevolved / MICcontrol),[3]; AMP-adapted line LL37_10,1
same,Fold change in minimum inhibitory concentration (MIC),[3]; AMP-adapted line PEX_1,1.1
same,Relative MIC (MICevolved / MICcontrol),[3]; AMP-adapted line PEX_1,1.1
same,Fold change in minimum inhibitory concentration (MIC),[3]; AMP-adapted line PEX_4,1.2
same,Relative MIC (MICevolved / MICcontrol),[3]; AMP-adapted line PEX_4,1.2
same,Fold change in minimum inhibitory concentration (MIC),[3]; AMP-adapted line PEX_5,1.1
same,Relative MIC (MICevolved / MICcontrol),[3]; AMP-adapted line PEX_5,1.1
same,Fold change in minimum inhibitory concentration (MIC),[3]; AMP-adapted line PEX_6,1
same,Relative MIC (MICevolved / MICcontrol),[3]; AMP-adapted line PEX_6,1
same,Fold change in minimum inhibitory concentration (MIC),[3]; AMP-adapted line PEX_7,1
same,Relative MIC (MICevolved / MICcontrol),[3]; AMP-adapted line PEX_7,1
same,Fold change in minimum inhibitory concentration (MIC),[3]; AMP-adapted line PR39_1,1
same,Relative MIC (MICevolved / MICcontrol),[3]; AMP-adapted line PR39_1,1
same,Fold change in minimum inhibitory concentration (MIC),[3]; AMP-adapted line PR39_2,0.9
same,Relative MIC (MICevolved / MICcontrol),[3]; AMP-adapted line PR39_2,0.9
same,Fold change in minimum inhibitory concentration (MIC),[3]; AMP-adapted line PR39_5,0.9
same,Relative MIC (MICevolved / MICcontrol),[3]; AMP-adapted line PR39_5,0.9
same,Fold change in minimum inhibitory concentration (MIC),[3]; AMP-adapted line PR39_7,0.9
same,Relative MIC (MICevolved / MICcontrol),[3]; AMP-adapted line PR39_7,0.9
same,Fold change in minimum inhibitory concentration (MIC),[3]; AMP-adapted line PR39_10,0.9
same,Relative MIC (MICevolved / MICcontrol),[3]; AMP-adapted line PR39_10,0.9
same,Fold change in minimum inhibitory concentration (MIC),[3]; AMP-adapted line PROA_2,1.1
same,Relative MIC (MICevolved / MICcontrol),[3]; AMP-adapted line PROA_2,1.1
same,Fold change in minimum inhibitory concentration (MIC),[3]; AMP-adapted line PROA_3,0.8
same,Relative MIC (MICevolved / MICcontrol),[3]; AMP-adapted line PROA_3,0.8
same,Fold change in minimum inhibitory concentration (MIC),[3]; AMP-adapted line PROA_7,1
same,Relative MIC (MICevolved / MICcontrol),[3]; AMP-adapted line PROA_7,1
same,Fold change in minimum inhibitory concentration (MIC),[3]; AMP-adapted line PROA_8,1
same,Relative MIC (MICevolved / MICcontrol),[3]; AMP-adapted line PROA_8,1
same,Fold change in minimum inhibitory concentration (MIC),[3]; AMP-adapted line PROA_9,1.1
same,Relative MIC (MICevolved / MICcontrol),[3]; AMP-adapted line PROA_9,1.1
same,Fold change in minimum inhibitory concentration (MIC),[3]; AMP-adapted line PXB_2,1.1
same,Relative MIC (MICevolved / MICcontrol),[3]; AMP-adapted line PXB_2,1.1
same,Fold change in minimum inhibitory concentration (MIC),[3]; AMP-adapted line PXB_5,1
same,Relative MIC (MICevolved / MICcontrol),[3]; AMP-adapted line PXB_5,1
same,Fold change in minimum inhibitory concentration (MIC),[3]; AMP-adapted line PXB_6,1.1
same,Relative MIC (MICevolved / MICcontrol),[3]; AMP-adapted line PXB_6,1.1
same,Fold change in minimum inhibitory concentration (MIC),[3]; AMP-adapted line PXB_8,1
same,Relative MIC (MICevolved / MICcontrol),[3]; AMP-adapted line PXB_8,1
same,Fold change in minimum inhibitory concentration (MIC),[3]; AMP-adapted line PXB_10,1.1
same,Relative MIC (MICevolved / MICcontrol),[3]; AMP-adapted line PXB_10,1.1
same,cross-resistance of the 38 AMP-resistant lines to the AMP (in words),[3]; cross-resistance = minimum of twofold increase in resistance level,none of the 38 AMP-resistant lines displayed cross-resistance; also recorded: no cross-resistance
"SWLSKTAKKLENSAKKRISEGIAIAIQGGPR [CP1, Cecropin P1]",MIC,K. pneumoniae ATCC 10031 [4],1.2 to 2.4 µM
same,MIC,[5],1.2 µM
